Assays:
Test in all cases: cells
LCLC-97TM1 = assay type: functional, cell-based, Homo sapiens; conditions: Homo sapiens, LCLC-97TM1;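 also: cell viability assay measuring growth inhibition of human LCLC-97TM1 cells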
Description: SANGER: Inhibition of human LCLC-97TM1 cell growth in a cell viability assay.

MDA-MB-415 = assay type: functional, cell-based; conditions: Homo sapiens
MPP-89 = assay type: functional, cell-based, Homo sapiens; conditions: Homo sapiens, MPP-89;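 also: growth inhibition of human MPP-89 cells, read out with a cell viability assay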
Description: SANGER: Inhibition of human MPP-89 cell growth in a cell viability assay.

SK-HEP1 = assay type: functional, cell-based, Homo sapiens, SK-HEP-1; conditions: Homo sapiens, SK-HEP1;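 also: cell viability readout used to quantify reduction in proliferation of human SK-HEP-1 cells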
Description: SANGER: Inhibition of human SK-HEP-1 cell growth in a cell viability assay.

CAL-85-1 = assay type: functional, cell-based; conditions: Homo sapiens;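 also: growth inhibition of human CAL-85-1 cells, read out with a cell viability assay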
Description: SANGER: Inhibition of human CAL-85-1 cell growth in a cell viability assay.

AGS = assay type: functional, cell-based, Homo sapiens; conditions: Homo sapiens, AGS;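 also: growth inhibition of AGS cells, determined with a cell viability assay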
Description: SANGER: Inhibition of human AGS cell growth in a cell viability assay.

PA-1 = assay type: functional, cell-based, Homo sapiens; conditions: Homo sapiens, PA-1;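 also: IC50 for suppression of PA-1 cell proliferation, determined with a cell viability read-out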
Description: SANGER: Inhibition of human PA-1 cell growth in a cell viability assay.

FaDu = assay type: functional, cell-based, Homo sapiens; conditions: Homo sapiens, FaDu;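 also: cell viability readout of growth inhibition in FaDu cells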
Description: SANGER: Inhibition of human FADU cell growth in a cell viability assay.

NCI-H2087 = assay type: functional, cell-based, Homo sapiens; conditions: Homo sapiens, NCI-H2087;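 also: growth inhibition determined with a cell viability readout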
Description: SANGER: Inhibition of human NCI-H2087 cell growth in a cell viability assay.

TE-9 = assay type: functional, cell-based, Homo sapiens; conditions: Homo sapiens, TE-9;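 also: cell growth inhibition, measured with a cell viability readout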
Description: SANGER: Inhibition of human TE-9 cell growth in a cell viability assay.

CW-2 = assay type: functional, cell-based, Homo sapiens; conditions: Homo sapiens, CW-2;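 also: growth inhibition of CW-2 cells, read out by a cell viability assay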
Description: SANGER: Inhibition of human CW-2 cell growth in a cell viability assay.

HT-3 = assay type: functional, cell-based, Homo sapiens; conditions: Homo sapiens, HT-3;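 also: growth inhibition measured with a cell viability readout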
Description: SANGER: Inhibition of human HT-3 cell growth in a cell viability assay.

LU-139 = assay type: functional, cell-based; conditions: Homo sapiens
Description: SANGER: Inhibition of human LU-139 cell growth in a cell viability assay.

KYSE-520 cell line = assay type: functional, cell-based, Homo sapiens; conditions: Homo sapiens, KYSE-520;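 also: growth inhibition of human KYSE-520 cells, read out with a viability assay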
Description: SANGER: Inhibition of human KYSE-520 cell growth in a cell viability assay.

A-375 = assay type: functional, cell-based, Homo sapiens; conditions: Homo sapiens, A-375;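 also: growth inhibition of A375 cells, read out with a cell viability assay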
Description: SANGER: Inhibition of human A375 cell growth in a cell viability assay.

HT = assay type: functional, cell-based; conditions: Homo sapiens
Description: SANGER: Inhibition of human HT cell growth in a cell viability assay.

NEC8 = assay type: functional, cell-based, Homo sapiens; conditions: Homo sapiens, NEC8;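 also: growth inhibition of human NEC8 cells, read out by a cell viability assay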
Description: SANGER: Inhibition of human NEC8 cell growth in a cell viability assay.

HEC-1 = assay type: functional, cell-based, Homo sapiens; conditions: Homo sapiens, HEC-1;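 also: growth inhibition of the cell line, read out with a cell viability assay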
Description: SANGER: Inhibition of human HEC-1 cell growth in a cell viability assay.

TE-12 = assay type: functional, cell-based; conditions: Homo sapiens;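 also: growth inhibition of TE-12 cells, read out by a cell viability assay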
Description: SANGER: Inhibition of human TE-12 cell growth in a cell viability assay.

EM-2 = assay type: functional, cell-based; conditions: Homo sapiens;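 also: growth inhibition of EM-2 cells, read out with a cell viability assay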
Description: SANGER: Inhibition of human EM-2 cell growth in a cell viability assay.

J82 = assay type: functional, cell-based; conditions: Homo sapiens;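 also: growth inhibition of J82 cells, read out with a cell viability assay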
Description: SANGER: Inhibition of human J82 cell growth in a cell viability assay.

COLO-678 = assay type: functional, cell-based, Homo sapiens; conditions: Homo sapiens, COLO-678
Description: SANGER: Inhibition of human COLO-678 cell growth in a cell viability assay.

ONS-76 = assay type: functional, cell-based, Homo sapiens; conditions: Homo sapiens, ONS-76;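 also: growth inhibition of human ONS-76 cells, read out with a cell viability assay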
Description: SANGER: Inhibition of human ONS-76 cell growth in a cell viability assay.

LAMA-84 = assay type: functional, cell-based; conditions: Homo sapiens;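 also: growth inhibition of LAMA-84 cells, read out with a cell viability assay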
Description: SANGER: Inhibition of human LAMA-84 cell growth in a cell viability assay.

SF-295 = assay type: functional, cell-based, Homo sapiens; conditions: Homo sapiens, SF-295; read-out: IC50;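 also: growth inhibition of SF-295 cells, read out with a cell viability assay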
Description: SANGER: Inhibition of human SF295 cell growth in a cell viability assay.

COLO-824 = assay type: functional, cell-based, Homo sapiens; conditions: Homo sapiens, COLO-824
Description: SANGER: Inhibition of human COLO-824 cell growth in a cell viability assay.

PSN1 = assay type: functional, cell-based, Homo sapiens; conditions: Homo sapiens, PSN1;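 also: suppression of growth of human PSN1 cells, read out by a cell viability assay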
Description: SANGER: Inhibition of human PSN1 cell growth in a cell viability assay.

SW837 = assay type: functional, cell-based, Homo sapiens; conditions: Homo sapiens, SW837;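 also: growth inhibition of SW837 cells, determined with a cell viability assay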
Description: SANGER: Inhibition of human SW837 cell growth in a cell viability assay.

A-431 = assay type: functional, cell-based, Homo sapiens; conditions: Homo sapiens, A-431;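 also: growth inhibition of A-431 cells, determined with a cell viability read-out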
Description: SANGER: Inhibition of human A431 cell growth in a cell viability assay.

A3-KAW = assay type: functional, cell-based; conditions: Homo sapiens;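 also: growth inhibition of human A3-KAW cells, read out with a cell viability assay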
Description: SANGER: Inhibition of human A3-KAW cell growth in a cell viability assay.

NCI-H650 = assay type: functional, cell-based, Homo sapiens; conditions: Homo sapiens, NCI-H650;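 also: growth inhibition of NCI-H650 cells, read out by a viability assay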
Description: SANGER: Inhibition of human NCI-H650 cell growth in a cell viability assay.

Capan-2 = assay type: functional, cell-based, Homo sapiens; conditions: Homo sapiens, Capan-2;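 also: Capan-2 cell growth inhibition, read out with a viability assay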
Description: SANGER: Inhibition of human Capan-2 cell growth in a cell viability assay.

NCI-H2126 = assay type: functional, cell-based, Homo sapiens; conditions: Homo sapiens, NCI-H2126;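 also: growth inhibition of the cancer cell line, determined with a cell viability readout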
Description: SANGER: Inhibition of human NCI-H2126 cell growth in a cell viability assay.

HH = assay type: functional, cell-based; conditions: Homo sapiens
Description: SANGER: Inhibition of human HH cell growth in a cell viability assay.

NCI-H747 = assay type: functional, cell-based; conditions: Homo sapiens;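 also: growth inhibition of human NCI-H747 cells, read out by a cell viability assay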
Description: SANGER: Inhibition of human NCI-H747 cell growth in a cell viability assay.

Ca-Ski = assay type: functional, cell-based; conditions: Homo sapiens;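 also: cell viability assay measuring inhibition of Ca-Ski cell growth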
Description: SANGER: Inhibition of human Ca-Ski cell growth in a cell viability assay.

GT3TKB = assay type: functional, cell-based, Homo sapiens; conditions: Homo sapiens, GT3TKB;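 also: growth inhibition of the cell line, read out with a cell viability assay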
Description: SANGER: Inhibition of human GT3TKB cell growth in a cell viability assay.

LS-513 = assay type: functional, cell-based, Homo sapiens; conditions: Homo sapiens, LS-513
Description: SANGER: Inhibition of human LS-513 cell growth in a cell viability assay.

AM-38 = assay type: functional, cell-based, Homo sapiens; conditions: Homo sapiens, AM-38;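 also: growth inhibition of AM-38 cells of human origin, read out by a cell viability assay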
Description: SANGER: Inhibition of human AM-38 cell growth in a cell viability assay.

Detroit 562 = assay type: functional, cell-based, Homo sapiens; conditions: Homo sapiens, Detroit 562;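 also: growth inhibition of human Detroit 562 cells, read out by a cell viability assay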
Description: SANGER: Inhibition of human Detroit562 cell growth in a cell viability assay.

LB2518-MEL = assay type: functional, cell-based, Homo sapiens; conditions: Homo sapiens, LB2518-MEL;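 also: growth inhibition of human LB2518-MEL cells, measured with a cell viability assay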
Description: SANGER: Inhibition of human LB2518-MEL cell growth in a cell viability assay.

NCI-H720 = assay type: functional, cell-based; conditions: Homo sapiens;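 also: growth inhibition of human NCI-H720 cells determined by a cell viability assay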
Description: SANGER: Inhibition of human NCI-H720 cell growth in a cell viability assay.

PC-3 = assay type: functional, cell-based, Homo sapiens; conditions: Homo sapiens, PC-3;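 also: cell viability assay measuring growth inhibition of PC-3 cells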
Description: SANGER: Inhibition of human PC-3 cell growth in a cell viability assay.

Ca9-22 = assay type: functional, cell-based, Homo sapiens; conditions: Homo sapiens, Ca9-22;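 also: growth inhibition of Ca9-22 cells, read out with a cell viability assay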
Description: SANGER: Inhibition of human Ca9-22 cell growth in a cell viability assay.

NCI-H2228 = assay type: functional, cell-based, Homo sapiens; conditions: Homo sapiens, NCI-H2228;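 also: growth inhibition of human NCI-H2228 cells, read out by a cell viability assay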
Description: SANGER: Inhibition of human NCI-H2228 cell growth in a cell viability assay.

HPAF-II = assay type: functional, cell-based, Homo sapiens; conditions: Homo sapiens, HPAF-II;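 also: growth inhibition of HPAF-II cells, read out with a cell viability assay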
Description: SANGER: Inhibition of human HPAF-II cell growth in a cell viability assay.

HEL = assay type: functional, cell-based, Homo sapiens; conditions: Homo sapiens, HEL;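 also: growth inhibition of HEL cells, read out with a cell viability assay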
Description: SANGER: Inhibition of human HEL cell growth in a cell viability assay.

RERF-LC-MS = assay type: functional, cell-based, Homo sapiens; conditions: Homo sapiens, RERF-LC-MS;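 also: growth inhibition of human RERF-LC-MS cells, read out by a cell viability assay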
Description: SANGER: Inhibition of human RERF-LC-MS cell growth in a cell viability assay.

P12-Ichikawa = assay type: functional, cell-based; conditions: Homo sapiens
KU-19-19 = assay type: functional, cell-based, Homo sapiens; conditions: Homo sapiens, KU-19-19
Description: SANGER: Inhibition of human KU-19-19 cell growth in a cell viability assay.

NOS-1 = assay type: functional, cell-based, Homo sapiens; conditions: Homo sapiens, NOS-1;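 also: growth inhibition of the human NOS-1 cell line, read out with a cell viability assay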
Description: SANGER: Inhibition of human NOS-1 cell growth in a cell viability assay.

LS-411N = assay type: functional, cell-based, Homo sapiens; conditions: Homo sapiens, LS-411N
EW-13 = assay type: functional, cell-based; conditions: Homo sapiens;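 also: growth inhibition of EW-13 cells, read out with a cell viability assay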
Description: SANGER: Inhibition of human EW-13 cell growth in a cell viability assay.

Measured: IC50

Cc1cnc(-c2cnc(NCCNc3ccc(C#N)cn3)nc2-c2ccc(Cl)cc2Cl)[nH]1 [LADUVIGLUSIB]
> 2560 nM: all assays above

C[C@]1(O)C[C@@H](c2nc(-c3ccc4ccc(-c5ccccc5)nc4c3)c3c(N)nccn32)C1 [LINSITINIB]
214 nM: NCI-H650
1230 nM: CAL-85-1
523 nM: NOS-1
210 nM: LCLC-97TM1
2050 nM: LS-513
765 nM: TE-12
476 nM: A-375
> 2560 nM: all other assays above

COc1ccc(C2=N[C@@H](c3ccc(Cl)cc3)[C@@H](c3ccc(Cl)cc3)N2C(=O)N2CCNC(=O)C2)c(OC(C)C)c1 [NUTLIN-3]
871 nM: PA-1
4340 nM: A-375
3740 nM: SK-HEP1
6150 nM: AGS
6790 nM: LS-513
1220 nM: NEC8
6760 nM: AM-38
5570 nM: ONS-76
2620 nM: A3-KAW
> 8000 nM: all other assays above

C=CCc1cccc(/C=N/NC(=O)CN2CCN(Cc3ccccc3)CC2)c1O [PAC-1]
869 nM: A-375
1930 nM: A3-KAW
2080 nM: LS-411N
1420 nM: LCLC-97TM1
> 2560 nM: all other assays above

Source: ChEMBL document CHEMBL1201861, “Genomics of Drug Sensitity in Cancer screening data, Wellcome Trust Sanger Institute”
